SMILES strings stand for the structures.

From PMC12362585, “Development and Preclinical Characterization of [^18F]H3-2406 and [^18F]H3-2407 for Positron Emission Tomography Imaging of the Histamine Subtype‑3 Receptor” (Journal of Medicinal Chemistry, 2025) come the findings set out here.

A short description of data set [1]: Ex vivo radiometabolite analysis in brain and plasma. The settings on record: CD1 mice, 30 min postinjection. Here is the method:
Next, ex vivo stability in the brain and plasma of CD1 mice was analyzed by radio-HPLC (Figure ). At 30 min postinjection, the parent fraction of [^18F]3 in the brain was determined to be 96%, indicating excellent in vivo metabolic stability. In the blood, 31% of the radioactivity remained intact.
A dose of 15 MBq of [^18F]3 in 0.1 mL saline was intravenously injected into the tail vein of CD1 mice (5–6 weeks). The mice were sacrificed at 30 min postinjection, and the mice brain and blood were quickly collected and homogenized with cold acetonitrile. […] The radioactivity for each fraction was measured using a γ counter (PerkinElmer Wizard). Data analysis was performed by GraphPad Prism 8.0, and the percentage of [^18F]3 relative to total radioactivity (corrected for decay) was calculated as (peak area for [^18F]3 /total peak area) × 100%.

The subject of data set [2] is P-glycoprotein (P-gp) and breast cancer resistance protein (BCRP). The experiment in a line: PET imaging in mice pretreated with elacridar. Type of data set: in vivo. Particulars: elacridar 3 mg/kg, 20 min prior to radioligand injection. How it is done:
To determine whether [^18F]3 is actively effluxed by BBB transporters such as P-glycoprotein (P-gp) and breast cancer resistance protein (BCRP), we conducted additional PET scans in mice pretreated with elacridar (3 mg/kg, a dual P-gp/BCRP inhibitor) 20 min prior to radioligand injection.
Figure S4. Mice PET imaging studies (0−60 minutes) of [ 18F]3. (A) TACs of [ 18F]3 in the whole-brain under baseline and elacridar-blocking (3 mg/kg) conditions; (B) Area under curve of [ 18F]3 in the whole-brain; All data were referred to as mean ± SD, n = […]
The molar activities of [18F]3 and [18F]4 were determined using calibration curves, which were generated by plotting the concentration of the authentic standard compounds 3 or 4 against their respective flow injection analysis peak area ratios ([…]). Based on these calibration curves, the molar activities of [18F]3 and [18F]4 were calculated and reported as GBq/µmol.
Figure S5. Calibration curves of compounds 3 (A) and 4 (B). The standard curve was generated by plotting the HPLC UV signal area against concentrations of the compounds 3 or 4. Linear regression analysis was performed to determine the correlation between peak area and […]

Data set [3] concerns the target T1, H3R (Rattus norvegicus, UniProt Q9QYN8).
T1 construct: The brains of SD rat were sectioned into 15 μm slices; from tissue; host or cells: SD rat brain sections
The experiment in a line: In vitro autoradiography on rat brain sections. The data set is classed as binding, SD rat. How it is done:
To validate the target specificity and selectivity, in vitro autoradiography experiments were conducted using [^18F]3 and [^18F]4 on rat brain sections. […] Furthermore, pretreatment with unlabeled compound 3 (10 μM) led to a signal reduction of over 90% in the brain. […] This discrepancy is likely attributable to additional off-target binding of [^18F]3, which is further supported by high uptake in the cerebellum – a region with low H3R expression. […] The high uptake in the cerebellum may be attributed to nonspecific binding to unidentified CNS targets. […] Nonetheless, the results support further in vivo PET evaluation to better understand their binding profiles and evaluate their potential for H3R imaging – particularly in regions with low sigma-1 abundance.
The ARG was measured according to previously reported methods. , The brains of SD rat were sectioned into 15 μm slices and stored in −80 °C. For each experiment, the brain slices allowed them to warm to room temperature and then incubated in Tris-HCl buffer (50 mM, containing 0.1% bovine serum albumin) for 10 min. The slices were incubated with [^18F]3 or [^18F]4 (0.037 MBq/mL) in the presence of either DMSO (baseline study), GSK189254 (10 μM, blocking study), and unlabeled 3 or 4 (10 μM, blocking study) at room temperature for 30 min. Following incubation, the brain slices were washed three times with cold Tris-HCl buffer (50 mM) for 5 min each, and then dipped in water 2 times for 5 s. The brain slices were dried under cold air and exposed to a Phosphor Screen (BAS IP MS2025, Cytiva) for 2 h. The radioactivity and imaging were captured using an Amersham Typhoon 5 (Cytiva) and the data were analyzed using ImageJ software.

Data set [4] in a line: In vitro stability in liver microsomes, mice. The data set is classed as in vitro ADME. Particulars: 90 min. Here is the method: To assess the stability of [^18F]3, in vitro radioactivity analyses were conducted following 30-, 60- and 90 min coincubation of the radioligand in the serum and liver microsomes from mice, nonhuman primates (NHPs), and humans (Figure ).
Serum from mice, NHPs, and humans were warmed to room temperature, 15 MBq of [^18F]3 was added to 0.4 mL of each species’ serum. The mixtures were incubated at 37 °C and 0.1 mL of mixture was transferred into 0.2 mL cold acetonitrile at 30, 60, and 90 min. The samples were vortexed for 15 s and then centrifuged at 10,000g for 5 min. The supernatant was analyzed using analytical HPLC (Agilent 1100 series HPLC system on Phenomenex Luna C-18 column (4.6 × 150 mm), mobile phase 30% CH3CN/0.1% TFA in water, flow:1 mL/min). For microsomes studies, a mixture of microsomes (0.5 mg/mL), [^18F]3 (15 MBq), 0.35 mL of PBS, 0.05 mL of NADPH regenerating system A, and 0.01 mL of NADPH regenerating system B were incubated at 37 °C. The subsequent steps followed the same procedure as described above.

T1 sequence (Q9QYN8 whole entry): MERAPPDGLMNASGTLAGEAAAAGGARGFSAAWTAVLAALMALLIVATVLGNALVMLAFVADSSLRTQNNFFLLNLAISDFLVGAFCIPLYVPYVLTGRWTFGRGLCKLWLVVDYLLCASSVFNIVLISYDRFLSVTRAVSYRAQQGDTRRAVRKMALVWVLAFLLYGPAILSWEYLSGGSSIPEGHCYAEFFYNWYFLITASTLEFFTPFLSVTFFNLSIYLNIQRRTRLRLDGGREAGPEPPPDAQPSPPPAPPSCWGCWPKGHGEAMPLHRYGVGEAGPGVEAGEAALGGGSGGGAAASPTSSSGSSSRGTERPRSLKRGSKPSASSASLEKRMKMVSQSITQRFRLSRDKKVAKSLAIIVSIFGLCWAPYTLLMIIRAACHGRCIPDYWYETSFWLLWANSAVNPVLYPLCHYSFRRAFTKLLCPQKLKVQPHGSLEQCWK

Consider `O=C([C@H]1C[C@@H]1c1ccc([18F])cc1)N1CCN(C2CCCC2)CC1` [[^18F]3], for which the “parent fraction in the brain” value in data set [1] is 96%. In addition, the “change of brain uptake after elacridar pretreatment” value in data set [2] is “did not significantly change”. For the same compound, the “reduction in radioactivity across brain regions, GSK189254 blocking” value in data set [3] (GSK189254 10 μM) is given as 43.6–86.0%. Also, in data set [3] (unlabeled 3 or 4 at 10 μM), the “signal reduction, self-blocking with unlabeled compound” value is “over 90%”. The “parent fraction in liver microsomes” value in data set [4] is reported as 78%.
